Results taken from patent US8772500B2, “TRPV3 modulators” (AbbVie Inc., priority 2011, dated 2014).

Tests used:
[1] = In vitro human microsomal stability assay; assay type: in vitro ADME; conditions: human, 0.5 h, 0.5 μM, pH 7.4
Summary of the method: (§1)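 Stability readout reflects compound turnover by hepatic microsomes from Sprague-Dawley rats or from humans, according to the assay. Reactions at 37 °C contained NADPH, which was present in the zero-time plates as well.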

[2] = In vitro rat microsomal stability assay; assay type: in vitro ADME, rat (Sprague-Dawley); conditions: Sprague-Dawley, rat, 0.5 h, 0.5 μM, pH 7.4
Summary of the method: as §1

[3] = biological target: T1, human TRPV3 (Homo sapiens, UniProt Q8NET8); assay: In vitro antagonism of recombinant human TRPV3 activation (FLIPR Tetra calcium assay, 2-APB as agonist); assay type: cell-based; conditions: HEK293 cells stably expressing human TRPV3; 2-APB 80 μM; range class; read-out: IC50 (reported range)
T1 construct: expressed in transfected cells
T1 sequence (Q8NET8 1-790): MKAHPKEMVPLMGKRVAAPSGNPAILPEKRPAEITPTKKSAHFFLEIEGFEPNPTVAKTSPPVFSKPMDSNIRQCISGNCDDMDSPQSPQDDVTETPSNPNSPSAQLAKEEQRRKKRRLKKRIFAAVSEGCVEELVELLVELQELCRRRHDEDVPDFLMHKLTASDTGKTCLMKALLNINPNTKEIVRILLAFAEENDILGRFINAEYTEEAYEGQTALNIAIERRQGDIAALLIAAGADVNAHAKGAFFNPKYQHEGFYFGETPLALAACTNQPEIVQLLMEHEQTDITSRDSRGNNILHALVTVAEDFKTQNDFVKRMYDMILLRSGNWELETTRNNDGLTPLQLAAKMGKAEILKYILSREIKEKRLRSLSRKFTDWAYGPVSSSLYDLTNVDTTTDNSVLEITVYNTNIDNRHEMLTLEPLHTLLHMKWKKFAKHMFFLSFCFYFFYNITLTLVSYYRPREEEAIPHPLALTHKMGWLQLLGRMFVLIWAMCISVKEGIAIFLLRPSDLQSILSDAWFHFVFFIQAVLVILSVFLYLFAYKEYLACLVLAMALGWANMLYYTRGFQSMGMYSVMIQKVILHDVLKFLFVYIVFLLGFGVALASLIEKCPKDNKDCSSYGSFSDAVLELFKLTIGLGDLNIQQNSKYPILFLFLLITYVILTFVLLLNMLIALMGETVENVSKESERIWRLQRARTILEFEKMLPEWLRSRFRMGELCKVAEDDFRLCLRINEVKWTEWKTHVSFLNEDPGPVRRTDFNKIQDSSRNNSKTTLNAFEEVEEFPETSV
Summary of the method: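 Readout is FLIPR fluorescence, max minus min as percent of uninhibited 2-APB response, giving IC50 (usually mean of ≥2 runs). Stable human TRPV3 HEK293 cells, Calcium-4 dye-loaded, got test compound then, three minutes later, 80 μM 2-APB (EC80); run length 10 min.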

SMILES | HUMAN MICROSOMAL STABILITY (% REMAINING AFTER 30 MINUTES) [1] | RAT MICROSOMAL STABILITY (% REMAINING AFTER 30 MINUTES) [2] | IC50 [3]
CC(C)(C)OC(=O)N1CC(c2ccc(C(F)(F)F)cc2)(C(O)c2ccccn2)C1 (stereo not drawn) [Example 153, tert-butyl 3-[hydroxy(pyridin-2-yl)methyl]-3-[4-(trifluoromethyl)phenyl]-azetidine-1-carboxylate] | 49% | 21% | 5.1 to 20 µM
O[C@H](c1ccccn1)C1(c2ccc(C(F)(F)F)cc2)CC(F)(F)C1 [Example 154, (S)-{3,3-difluoro-1-[4-(trifluoromethyl)phenyl]cyclobutyl}(pyridin-2-yl)-methanol] | 56% | 78% | 0.05 to 0.5 µM
CN1CC(c2ccc(C(F)(F)F)cc2)(C(O)c2ccccn2)C1 (stereo not drawn) [Example 155, {1-methyl-3-[4-(trifluoromethyl)phenyl]azetidin-3-yl}(pyridin-2-yl)methanol] | >85% | 76% | 5.1 to 20 µM
O[C@@H](c1ccccn1)C1(c2ccc(OC(F)(F)F)cc2)CC(F)(F)C1 [Example 159, (R)-{3,3-difluoro-1-[4-(trifluoromethoxy)phenyl]cyclobutyl}(pyridin-2-yl)methanol] | 45% | 65% | 1.1 to 5 µM
O=C1CC(c2ccc(C(F)(F)F)cc2)(C(O)c2ccccn2)C1 (stereo not drawn) [Example 160, 3-[hydroxy(pyridin-2-yl)methyl]-3-[4-(trifluoromethyl)phenyl]cyclobutanone] | >85% | 60% | 5.1 to 20 µM
OC(c1ccccn1)C1(c2ccc(C(F)(F)F)cc2)CC2(C1)OCCO2 (stereo not drawn) [Example 161, pyridin-2-yl{2-[4-(trifluoromethyl)phenyl]-5,8-dioxaspiro[3.4]oct-2-yl}-methanol] | 61% | <0.01% | 1.1 to 5 µM
OC(c1ccccn1)C1(C2CCCCC2)CCC1 (stereo not drawn) [Example 162, (1-cyclohexylcyclobutyl)(pyridin-2-yl)methanol] | 0.02% | <0.01% | 1.1 to 5 µM
OC(c1ccccn1)C1(C2CCCC2)CCC1 (stereo not drawn) [Example 163, (1-cyclopentylcyclobutyl)(pyridin-2-yl)methanol] | 0.11% | <0.01% | 1.1 to 5 µM
OC1CC(c2ccc(C(F)(F)F)cc2)([C@H](O)c2ccccn2)C1 (stereo partly drawn) [Example 166, 3-[(S)-hydroxy(pyridin-2-yl)methyl]-3-[4-(trifluoromethyl)phenyl]-cyclobutanol] | >85% | >85% | 5.1 to 20 µM
OC(C1CCc2cccnc21)C1(c2ccc(Cl)c(Cl)c2)CCC1 (stereo not drawn) [Example 168, (syn)-[1-(3,4-dichlorophenyl)cyclobutyl][6,7-dihydro-5H-cyclopenta[b]-pyridin-7-yl]methanol] | 5.6% | <0.01% | 5.1 to 20 µM
OC(C1CCCc2cccnc21)C1(c2ccc(F)c(F)c2)CCC1 (stereo not drawn) [Example 169, (anti)-[1-(3,4-difluorophenyl)cyclobutyl][5,6,7,8-tetrahydroquinolin-8-yl]-methanol] | <0.01% | <0.01% | 5.1 to 20 µM
OC(C1CCCc2cccnc21)C1(c2ccc(OC(F)(F)F)cc2)CCC1 (stereo not drawn) [Example 177, (anti)-5,6,7,8-tetrahydroquinolin-8-yl{1-[4-(trifluoromethoxy)phenyl]-cyclobutyl}methanol] | 0.12% | <0.01% | 1.1 to 5 µM
OC(C1CCCc2cccnc21)C1(c2cccc(C(F)(F)F)c2)CCC1 (stereo not drawn) [Example 179, (anti)-5,6,7,8-tetrahydroquinolin-8-yl{1-[3-(trifluoromethyl)phenyl]-cyclobutyl}methanol] | <0.01% | <0.01% | 1.1 to 5 µM
OC(C1CCCc2cccnc21)C1(c2ccc(Cl)c(Cl)c2)CCC1 (stereo not drawn) [Example 181, (anti)-[1-(3,4-dichlorophenyl)cyclobutyl][5,6,7,8-tetrahydroquinolin-8-yl]-methanol] | <0.01% | <0.01% | 1.1 to 5 µM
OC(C1CCCc2cccnc21)C1(c2ccc(C(F)(F)F)cc2)CCC1 (stereo not drawn) [Example 183, (anti)-5,6,7,8-tetrahydroquinolin-8-yl{1-[4-(trifluoromethyl)phenyl]-cyclobutyl}methanol] | <0.01% | <0.01% | 1.1 to 5 µM
OC1CC(c2ccc(C(F)(F)F)cc2)(C(O)c2ccccn2)C1 [Example 200, cis-3-[(S)-hydroxy(pyridin-2-yl)methyl]-3-[4-(trifluoromethyl)phenyl]-cyclobutanol] | >85% | >85% | 5.1 to 20 µM
OC1CC(c2ccc(C(F)(F)F)cc2)(C(O)c2ccccn2)C1 [Example 201, trans-3-[(S)-hydroxy(pyridin-2-yl)methyl]-3-[4-(trifluoromethyl)phenyl]-cyclobutanol] | 73% | >85% | 5.1 to 20 µM
OC(c1ccccn1)C1(c2ccc(OC(F)(F)F)cc2)CC2(C1)OCCO2 (stereo not drawn) [Example 202, pyridin-2-yl{2-[4-(trifluoromethoxy)phenyl]-5,8-dioxaspiro[3.4]oct-2-yl}-methanol] | 73% | <0.01% | 5.1 to 20 µM
CC1(O)CC(c2ccc(OC(F)(F)F)cc2)(C(O)c2ccccn2)C1 [Example 203, trans-3-[(S)-hydroxy(pyridin-2-yl)methyl]-1-methyl-3-[4-(trifluoromethoxy)-phenyl]cyclobutanol] | >85% | 74% | 5.1 to 20 µM
NC1CCCC1C(O)C1(c2cccc(C(F)(F)F)c2)CCC1 (stereo not drawn) [Example 204, (2-aminocyclopentyl){1-[3-(trifluoromethyl)phenyl]cyclobutyl}methanol] | >85% | >85% | 1.1 to 5 µM
NC1CCCC1C(O)C1(c2ccc(C(F)(F)F)cc2)CCC1 (stereo not drawn) [Example 205, (2-aminocyclopentyl){1-[4-(trifluoromethyl)phenyl]cyclobutyl}methanol] | >85% | >85% | 1.1 to 5 µM
NC1CCCC1C(O)C1(c2ccc(OC(F)(F)F)cc2)CCC1 (stereo not drawn) [Example 206, (2-aminocyclopentyl){1-[4-(trifluoromethoxy)phenyl]cyclobutyl}methanol] | 83% | 62% | 1.1 to 5 µM
NC1CCCCC1C(O)C1(c2cccc(C(F)(F)F)c2)CCC1 (stereo not drawn) [Example 212, (2-aminocyclohexyl){1-[3-(trifluoromethyl)phenyl]cyclobutyl}methanol] | >85% | 3.9% | 1.1 to 5 µM
